In ChEMBL document CHEMBL2086246, “Synthesis and optimization of substituted furo[2,3-d]-pyrimidin-4-amines and 7H-pyrrolo[2,3-d]pyrimidin-4-amines as ACK1 inhibitors” (Bioorg Med Chem Lett, 2012):
Activity calls are given as the source filed them. The rule behind the calls is not given here.

What was measured:
Activated CDC42 kinase 1 [1] = molecular target: T1, Activated CDC42 kinase 1 (Homo sapiens, UniProt Q07912); assay: Inhibition of N-terminal His6-tagged ACK1 expressed in baculovirus infected Hi5 cells assessed as inhibition of autophosphorylation after 2 hrs by ELISA; parameters: species or system BTI-TN-5B1-4
Target sequence in this assay (Q07912 whole entry): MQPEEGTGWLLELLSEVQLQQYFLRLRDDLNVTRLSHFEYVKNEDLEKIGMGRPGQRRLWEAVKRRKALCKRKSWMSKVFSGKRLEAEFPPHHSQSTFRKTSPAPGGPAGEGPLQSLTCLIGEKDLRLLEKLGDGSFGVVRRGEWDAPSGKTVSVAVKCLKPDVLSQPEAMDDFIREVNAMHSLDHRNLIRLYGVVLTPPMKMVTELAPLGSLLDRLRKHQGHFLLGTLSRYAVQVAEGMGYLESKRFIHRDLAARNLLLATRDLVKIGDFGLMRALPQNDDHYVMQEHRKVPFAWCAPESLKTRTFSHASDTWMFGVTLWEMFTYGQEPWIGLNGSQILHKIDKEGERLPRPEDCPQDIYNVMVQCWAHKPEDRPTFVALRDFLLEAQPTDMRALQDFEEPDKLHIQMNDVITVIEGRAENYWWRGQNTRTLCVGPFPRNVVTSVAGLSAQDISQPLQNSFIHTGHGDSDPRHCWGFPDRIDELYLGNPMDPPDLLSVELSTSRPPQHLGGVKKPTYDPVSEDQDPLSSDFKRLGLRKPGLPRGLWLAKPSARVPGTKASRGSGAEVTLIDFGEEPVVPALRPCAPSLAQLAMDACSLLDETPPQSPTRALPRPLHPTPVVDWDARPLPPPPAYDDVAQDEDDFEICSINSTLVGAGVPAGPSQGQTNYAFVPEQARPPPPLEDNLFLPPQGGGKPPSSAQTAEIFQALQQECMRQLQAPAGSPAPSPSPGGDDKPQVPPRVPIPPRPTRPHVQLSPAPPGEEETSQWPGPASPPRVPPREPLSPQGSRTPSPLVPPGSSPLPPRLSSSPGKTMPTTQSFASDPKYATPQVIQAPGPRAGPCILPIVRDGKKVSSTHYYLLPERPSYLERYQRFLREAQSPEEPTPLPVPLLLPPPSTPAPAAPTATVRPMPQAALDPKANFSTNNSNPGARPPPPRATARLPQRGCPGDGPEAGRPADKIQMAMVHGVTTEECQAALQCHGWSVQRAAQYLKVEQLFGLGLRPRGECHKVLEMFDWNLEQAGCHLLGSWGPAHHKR

Activated CDC42 kinase 1 [2] = molecular target: T1, Activated CDC42 kinase 1; assay: Reversible inhibition of ACK1
Target sequence in this assay (Q07912 whole entry, looked up): as the sequence (Q07912 whole entry) above

Activated CDC42 kinase 1 [3] = molecular target: T1, Activated CDC42 kinase 1; assay: Competitive inhibition of ACK1 using ATP
Target sequence in this assay (Q07912 whole entry, looked up): as the sequence (Q07912 whole entry) above

Activated CDC42 kinase 1 [4] = molecular target: T1, Activated CDC42 kinase 1; assay: Inhibition of ACK1
Target sequence in this assay (Q07912 whole entry): as above

[5] = Volume of distribution at steady state in Sprague-Dawley rat at 1 mg/kg, iv; assay type: ADME, organism-based; parameters: dose 1 mg/kg, route intravenous; settings: in vivo, read-out: Vdss
[6] = molecular target: Vascular endothelial growth factor receptor 2 (Homo sapiens, UniProt P35968); assay: Inhibition of KDR
Chain of Vascular endothelial growth factor receptor 2 (P35968 whole entry): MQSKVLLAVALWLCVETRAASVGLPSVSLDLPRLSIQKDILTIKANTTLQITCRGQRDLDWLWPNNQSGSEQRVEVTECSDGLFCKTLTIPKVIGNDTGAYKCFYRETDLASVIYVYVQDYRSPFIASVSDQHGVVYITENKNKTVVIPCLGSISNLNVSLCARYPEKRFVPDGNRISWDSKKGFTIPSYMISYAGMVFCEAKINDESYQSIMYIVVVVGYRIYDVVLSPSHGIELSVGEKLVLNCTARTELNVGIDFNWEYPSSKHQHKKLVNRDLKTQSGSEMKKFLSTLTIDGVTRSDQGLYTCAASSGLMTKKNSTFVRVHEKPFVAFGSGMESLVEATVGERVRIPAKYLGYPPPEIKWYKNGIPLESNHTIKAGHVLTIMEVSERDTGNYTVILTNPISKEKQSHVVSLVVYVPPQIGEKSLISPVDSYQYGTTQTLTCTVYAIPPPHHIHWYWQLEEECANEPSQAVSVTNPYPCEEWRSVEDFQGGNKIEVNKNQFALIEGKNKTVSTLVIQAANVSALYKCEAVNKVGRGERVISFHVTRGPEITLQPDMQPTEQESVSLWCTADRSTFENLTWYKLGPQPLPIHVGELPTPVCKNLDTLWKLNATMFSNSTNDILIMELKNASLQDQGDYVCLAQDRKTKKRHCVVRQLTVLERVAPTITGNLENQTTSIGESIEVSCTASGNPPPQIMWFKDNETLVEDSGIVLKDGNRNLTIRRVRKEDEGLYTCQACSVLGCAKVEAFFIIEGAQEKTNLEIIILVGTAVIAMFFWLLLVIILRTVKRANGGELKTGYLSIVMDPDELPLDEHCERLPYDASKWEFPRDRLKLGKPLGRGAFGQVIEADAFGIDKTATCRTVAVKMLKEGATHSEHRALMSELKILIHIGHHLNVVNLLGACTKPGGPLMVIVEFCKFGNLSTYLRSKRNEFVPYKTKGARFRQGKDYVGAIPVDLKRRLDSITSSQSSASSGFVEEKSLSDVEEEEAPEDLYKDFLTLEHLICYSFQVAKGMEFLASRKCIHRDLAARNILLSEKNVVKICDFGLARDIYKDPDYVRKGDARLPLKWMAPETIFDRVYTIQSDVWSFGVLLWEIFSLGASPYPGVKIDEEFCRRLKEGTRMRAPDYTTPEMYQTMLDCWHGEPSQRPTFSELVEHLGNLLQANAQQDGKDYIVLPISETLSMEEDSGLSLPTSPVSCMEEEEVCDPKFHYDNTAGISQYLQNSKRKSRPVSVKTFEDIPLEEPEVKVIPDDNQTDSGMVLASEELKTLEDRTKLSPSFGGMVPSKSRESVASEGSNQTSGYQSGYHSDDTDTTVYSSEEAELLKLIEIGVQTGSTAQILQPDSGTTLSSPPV

[7] = Mean residence time in Sprague-Dawley rat at 1 mg/kg, iv; assay type: ADME, organism-based; parameters: dose 1 mg/kg, route intravenous; settings: in vivo
Angiopoietin-1 receptor = Angiopoietin-1 receptor (Homo sapiens, UniProt Q02763); assay: Inhibition of TIE2
Chain of Angiopoietin-1 receptor (Q02763 whole entry): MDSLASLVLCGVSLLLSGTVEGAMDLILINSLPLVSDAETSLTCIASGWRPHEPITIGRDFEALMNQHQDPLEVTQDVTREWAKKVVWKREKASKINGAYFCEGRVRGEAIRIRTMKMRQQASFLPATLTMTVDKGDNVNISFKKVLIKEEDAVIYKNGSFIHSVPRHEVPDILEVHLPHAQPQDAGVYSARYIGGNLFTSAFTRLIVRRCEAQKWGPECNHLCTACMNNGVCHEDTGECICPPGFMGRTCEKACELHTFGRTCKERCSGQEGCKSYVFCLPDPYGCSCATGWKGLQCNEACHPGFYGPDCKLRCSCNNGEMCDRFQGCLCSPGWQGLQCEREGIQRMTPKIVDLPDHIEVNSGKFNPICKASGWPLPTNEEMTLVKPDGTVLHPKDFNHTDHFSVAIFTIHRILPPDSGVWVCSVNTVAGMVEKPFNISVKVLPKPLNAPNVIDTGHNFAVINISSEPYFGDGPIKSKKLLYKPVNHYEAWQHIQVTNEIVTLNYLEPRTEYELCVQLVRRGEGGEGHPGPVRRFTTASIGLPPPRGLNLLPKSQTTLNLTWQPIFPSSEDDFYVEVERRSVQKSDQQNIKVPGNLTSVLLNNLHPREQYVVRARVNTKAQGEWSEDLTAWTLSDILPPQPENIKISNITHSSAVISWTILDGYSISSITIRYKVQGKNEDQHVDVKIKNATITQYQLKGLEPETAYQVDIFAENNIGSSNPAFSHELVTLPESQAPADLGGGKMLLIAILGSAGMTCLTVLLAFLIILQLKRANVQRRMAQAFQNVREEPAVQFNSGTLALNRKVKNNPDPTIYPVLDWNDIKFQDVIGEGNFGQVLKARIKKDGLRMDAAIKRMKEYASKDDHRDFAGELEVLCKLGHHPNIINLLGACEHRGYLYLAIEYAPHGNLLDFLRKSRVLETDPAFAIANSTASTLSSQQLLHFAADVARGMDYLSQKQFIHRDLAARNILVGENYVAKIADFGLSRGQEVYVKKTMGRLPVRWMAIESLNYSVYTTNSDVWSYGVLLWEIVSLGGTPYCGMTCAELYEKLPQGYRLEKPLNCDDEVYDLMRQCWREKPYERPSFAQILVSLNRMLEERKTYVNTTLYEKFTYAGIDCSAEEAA

[8] = molecular target: Tyrosine-protein kinase Lck (Homo sapiens, UniProt P06239); assay: Inhibition of LCK
Chain of Tyrosine-protein kinase Lck (P06239 whole entry): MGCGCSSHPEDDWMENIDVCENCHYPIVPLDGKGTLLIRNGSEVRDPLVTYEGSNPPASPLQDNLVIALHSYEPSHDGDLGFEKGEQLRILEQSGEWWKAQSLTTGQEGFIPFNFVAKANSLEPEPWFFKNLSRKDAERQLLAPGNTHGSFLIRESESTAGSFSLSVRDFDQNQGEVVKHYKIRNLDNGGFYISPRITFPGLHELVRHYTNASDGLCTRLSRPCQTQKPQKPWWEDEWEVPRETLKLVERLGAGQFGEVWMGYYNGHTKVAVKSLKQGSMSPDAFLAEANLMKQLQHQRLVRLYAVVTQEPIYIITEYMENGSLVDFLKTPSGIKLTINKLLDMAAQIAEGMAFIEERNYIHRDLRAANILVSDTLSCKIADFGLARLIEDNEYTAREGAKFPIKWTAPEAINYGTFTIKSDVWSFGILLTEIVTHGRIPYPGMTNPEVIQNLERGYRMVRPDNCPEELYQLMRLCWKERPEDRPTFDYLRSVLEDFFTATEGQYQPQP

[9] = molecular target: T2, Tyrosine-protein kinase JAK3 (Homo sapiens, UniProt P52333); assay: Inhibition of JAK3
T2 sequence (P52333 whole entry): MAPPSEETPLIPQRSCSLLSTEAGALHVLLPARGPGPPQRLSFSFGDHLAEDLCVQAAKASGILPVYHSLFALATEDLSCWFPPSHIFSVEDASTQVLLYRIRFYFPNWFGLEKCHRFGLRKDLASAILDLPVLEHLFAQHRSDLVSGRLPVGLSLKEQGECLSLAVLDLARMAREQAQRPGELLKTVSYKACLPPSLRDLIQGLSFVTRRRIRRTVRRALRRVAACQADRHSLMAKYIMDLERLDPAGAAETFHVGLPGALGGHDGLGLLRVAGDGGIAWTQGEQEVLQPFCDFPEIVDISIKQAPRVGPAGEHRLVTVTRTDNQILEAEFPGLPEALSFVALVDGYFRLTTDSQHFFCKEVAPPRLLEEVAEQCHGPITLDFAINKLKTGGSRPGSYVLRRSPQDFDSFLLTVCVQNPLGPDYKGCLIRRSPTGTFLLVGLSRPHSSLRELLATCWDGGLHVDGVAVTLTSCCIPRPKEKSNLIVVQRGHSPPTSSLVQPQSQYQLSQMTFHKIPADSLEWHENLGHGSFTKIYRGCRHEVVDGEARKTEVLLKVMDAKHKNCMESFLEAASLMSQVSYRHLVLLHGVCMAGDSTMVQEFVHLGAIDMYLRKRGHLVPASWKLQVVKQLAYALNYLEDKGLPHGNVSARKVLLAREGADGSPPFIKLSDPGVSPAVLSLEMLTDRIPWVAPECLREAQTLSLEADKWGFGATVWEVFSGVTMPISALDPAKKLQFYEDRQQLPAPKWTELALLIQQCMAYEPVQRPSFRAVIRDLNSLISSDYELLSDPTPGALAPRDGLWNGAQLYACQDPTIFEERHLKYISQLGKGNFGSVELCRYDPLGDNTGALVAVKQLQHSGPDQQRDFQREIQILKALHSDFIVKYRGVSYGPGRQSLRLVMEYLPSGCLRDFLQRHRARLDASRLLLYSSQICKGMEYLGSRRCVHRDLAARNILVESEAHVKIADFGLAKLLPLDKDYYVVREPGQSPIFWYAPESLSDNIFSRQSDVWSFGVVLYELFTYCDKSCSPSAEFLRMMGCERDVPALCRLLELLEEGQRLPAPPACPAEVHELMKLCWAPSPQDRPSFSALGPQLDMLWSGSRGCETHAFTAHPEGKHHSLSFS

[10] = Clearance in Sprague-Dawley rat at 1 mg/kg, iv; assay type: ADME, organism-based; parameters: dose 1 mg/kg, route intravenous; settings: in vivo
[11] = Drug metabolism in rat liver S9 fraction assessed as dimethylamino oxidation; assay type: ADME, subcellular
[12] = Drug metabolism in rat liver S9 fraction assessed as dithiolane ring oxidation; assay type: ADME, subcellular
Activated CDC42 kinase 1 [13] = molecular target: Activated CDC42 kinase 1 (Mus musculus, UniProt O54967); assay: Inhibition of ACK1 in mouse C8 cells assessed as decrease in cell viability after 20 to 24 hrs; assay type: cell-based

SMILES | Ki (Activated CDC42 kinase 1 [1]) | also measured
CNS(=O)(=O)c1ccc(-c2oc3ncnc(NC[C@@H]4CCCO4)c3c2-c2ccccc2)cc1 | 4 nM | –
c1ccc(-c2c(-c3ccc(OCCN4CCCC4)cc3)[nH]c3ncnc(NC[C@@H]4CCCO4)c23)cc1 | 6 nM | –
O=C(c1ccc(-c2[nH]c3ncnc(NC[C@@H]4CCCO4)c3c2-c2ccccc2)cc1)N1CCOCC1 | 6 nM | –
Nc1ncnc2oc(-c3ccccc3)c(-c3ccccc3)c12 | – | inhibition (Activated CDC42 kinase 1 [2]): Active; inhibition (Activated CDC42 kinase 1 [3]): Active; Ki (Activated CDC42 kinase 1 [4]): 1000 nM
CN(C)CCOc1ccc(-c2oc3ncnc(NCC4SCCS4)c3c2-c2ccccc2)cc1 | 0.2 nM | –
CNC(=O)c1ccc(-c2oc3ncnc(NC[C@@H]4CCCO4)c3c2-c2ccccc2)cc1 | 13 nM | –
CN(C)C(=O)c1ccc(-c2[nH]c3ncnc(NC[C@@H]4CCCO4)c3c2-c2ccccc2)cc1 | 2 nM | –
CN(C)CCOc1ccc(-c2oc3ncnc(NC[C@@H]4CCCCS4)c3c2-c2ccccc2)cc1 | 69 nM | –
CNS(=O)(=O)c1ccc(-c2[nH]c3ncnc(NC[C@@H]4CCCO4)c3c2-c2ccccc2)cc1 | 2 nM | –
CN(C)CCOc1ccc(-c2oc3ncnc(NCC4SCCCS4)c3c2-c2ccccc2)cc1 | 4 nM | –
c1ccc(-c2oc3nccc(NC[C@@H]4CCCO4)c3c2-c2ccccc2)cc1 | 70 nM | –
c1ccc(-c2c(-c3ccc(OCCN4CCCC4)cc3)[nH]c3ncnc(NCC4SCCS4)c23)cc1 | 0.3 nM | Vd [5]: 15.6 L/kg; Ki [6]: 380 nM; MRT [7]: 2.3 h; Ki (Angiopoietin-1 receptor): 200 nM; Ki [8]: 138 nM; Ki [9]: 6.5 nM; clearance [10]: 6.8 L/h/kg
CO[C@@H]1CCC[C@@H]1CNc1ncnc2[nH]c(-c3ccc(OCCN(C)C)cc3)c(-c3ccccc3)c12 | 50 nM | –
COc1ccc(-c2[nH]c3ncnc(NC[C@@H]4CCCO4)c3c2-c2ccccc2)cc1 | 6 nM | –
O=C1CCCN1CCOc1ccc(-c2oc3ncnc(NC[C@@H]4CCCO4)c3c2-c2ccccc2)cc1 | 4 nM | –
c1ccc(-c2nc3ncnc(NC[C@@H]4CCCO4)n3c2-c2ccccc2)cc1 | 1800 nM | –
CN(C)CCOc1ccc(-c2oc3ncnc(NCC4CCCS4)c3c2-c2ccccc2)cc1 (racemic) | 8 nM | –
CS(=O)(=O)c1ccc(-c2[nH]c3ncnc(NC[C@@H]4CCCO4)c3c2-c2ccccc2)cc1 | 7 nM | –
CN(C)CCOc1ccc(-c2oc3ncnc(NCC4OCCO4)c3c2-c2ccccc2)cc1 | 13 nM | –
CO[C@@H]1CC[C@H]1CNc1ncnc2[nH]c(-c3ccc(OCCN(C)C)cc3)c(-c3ccccc3)c12 (racemic) | 20 nM | –
c1ccc(-c2c(-c3ccc(OCCN4CCOCC4)cc3)[nH]c3ncnc(NC[C@@H]4CCCO4)c23)cc1 | 6 nM | –
CO[C@@H]1CCC[C@H]1CNc1ncnc2[nH]c(-c3ccc(OCCN(C)C)cc3)c(-c3ccccc3)c12 | 50 nM | –

SMILES | Ki (Activated CDC42 kinase 1 [1]) | also measured
CN(C)CCOc1ccc(-c2[nH]c3ncnc(NC[C@@H]4CCCO4)c3c2C2=CCCCC2)cc1 | 10 nM | –
c1ccc(-c2sc3ncnc(NC[C@@H]4CCCO4)c3c2-c2ccccc2)cc1 | > 10000 nM | –
Cc1ccccc1-c1c(-c2ccc(OCCN3CCCC3)cc2)[nH]c2ncnc(NC[C@@H]3CCCO3)c12 | 20 nM | –
CN(C)CCOc1ccc(-c2[nH]c3ncnc(NC[C@@H]4CC[C@H]4O)c3c2-c2ccccc2)cc1 (racemic) | 30 nM | –
O=C1CCCN1CCOc1ccc(-c2[nH]c3ncnc(NC[C@@H]4CCCO4)c3c2-c2ccccc2)cc1 | 4 nM | –
CN(C)S(=O)(=O)c1ccc(-c2[nH]c3ncnc(NC[C@@H]4CCCO4)c3c2-c2ccccc2)cc1 | 2 nM | –
CN(C)CCOc1ccc(-c2[nH]c3ncnc(NCC4SCCS4)c3c2-c2ccccc2)cc1 | – | Vd [5]: 26.6 L/kg; Drug metabolism [11]: Active; MRT [7]: 3.6 h; Drug metabolism [12]: Active; clearance [10]: 7.5 L/h/kg
CS(=O)(=O)c1ccc(-c2oc3ncnc(NC[C@@H]4CCCO4)c3c2-c2ccccc2)cc1 | 8 nM | –
COc1cccc(-c2c(-c3ccc(OCCN4CCCC4)cc3)[nH]c3ncnc(NC[C@@H]4CCCO4)c23)c1 | 10 nM | –
CN(C)CCOc1ccc(-c2[nH]c3ncnc(NC[C@@H]4CCCO4)c3c2C2=CCCC2)cc1 | 20 nM | –
Fc1ccccc1-c1c(-c2ccc(OCCN3CCCC3)cc2)[nH]c2ncnc(NC[C@@H]3CCCO3)c12 | 4 nM | –
COc1ccc(-c2oc3ncnc(NC[C@@H]4CCCO4)c3c2-c2ccccc2)cc1 | 5 nM | –
O=C(c1ccc(-c2oc3ncnc(NC[C@@H]4CCCO4)c3c2-c2ccccc2)cc1)N1CCOCC1 | 6 nM | –
c1ccc(-c2[nH]c3ncnc(NC[C@@H]4CCCO4)c3c2-c2ccccc2)cc1 | 6 nM | –
CN(C)CCOc1ccc(-c2[nH]c3ncnc(NC[C@@H]4CCCO4)c3c2-c2ccccc2)cc1 | 6 nM | –
CNC(=O)c1ccc(-c2[nH]c3ncnc(NC[C@@H]4CCCO4)c3c2-c2ccccc2)cc1 | 3 nM | –
c1ccc(-c2nc3ncnc(NC[C@@H]4CCCO4)c3n2-c2ccccc2)cc1 | 7300 nM | –
CN(C)CCOc1ccc(-c2[nH]c3ncnc(NC[C@@H]4CCCO4)c3c2C2CC2)cc1 | 1980 nM | IC50 (Activated CDC42 kinase 1 [13]): Not Active
c1ccc(-c2c(-c3ccc(OCCN4CCOCC4)cc3)oc3ncnc(NC[C@@H]4CCCO4)c23)cc1 | 4 nM | –
c1cncc(-c2c(-c3ccc(OCCN4CCCC4)cc3)[nH]c3ncnc(NC[C@@H]4CCCO4)c23)c1 | 40 nM | –
CN(C)CCOc1ccc(-c2oc3ncnc(NC[C@@H]4CCCO4)c3c2-c2ccccc2)cc1 | 5 nM | –
CN(C)C(=O)c1ccc(-c2oc3ncnc(NC[C@@H]4CCCO4)c3c2-c2ccccc2)cc1 | 10 nM | –
